Legend:
Type in all cases: binding
F2RL1 = biological target: T1, F2RL1 (Homo sapiens, UniProt P55085); assay: NanoBRET screen HiBiT-F2RL1 in HEK293
T1 construct: purchased Promega (in-house HiBiT-GPCR construct library, NanoBRET)
T1 sequence (P55085 26-397): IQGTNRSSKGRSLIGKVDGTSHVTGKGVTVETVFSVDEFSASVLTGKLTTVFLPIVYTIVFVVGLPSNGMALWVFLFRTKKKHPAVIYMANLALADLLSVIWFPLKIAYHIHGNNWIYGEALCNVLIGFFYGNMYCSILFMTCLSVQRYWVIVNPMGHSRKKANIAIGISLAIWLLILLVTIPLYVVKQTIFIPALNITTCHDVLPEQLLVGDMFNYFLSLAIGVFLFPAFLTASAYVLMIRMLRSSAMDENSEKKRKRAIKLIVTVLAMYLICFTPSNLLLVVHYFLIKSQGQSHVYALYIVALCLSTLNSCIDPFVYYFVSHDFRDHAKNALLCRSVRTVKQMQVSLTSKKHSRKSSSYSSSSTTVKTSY
Protocol: (§1) Each tracer candidate was screened across the entire library of HiBiT-GPCR constructs using NanoBRET as the detection modality. As depicted in Figure 4A, the specificity of interactions was evaluated through decrease in BRET due to competitive displacement of a bound tracer by excess parental compound. Each tracer was analyzed for binding to each HiBiT-GPCR fusion in the absence and in the presence of competing parental compound. Briefly, HEK293 cells were transfected with HiBiT-GPCR constructs diluted into promoterless DNA to reduce expression and maximize translocation to the cell surface. Each tracer candidate was then screened at concentrations of 1 μM and 0.1 μM across cells expressing these fusions. Cells were treated for 1.5 h with tracer either alone or in the presence of 20 μM competing parental compound (i.e., control). BRET was measured upon addition of purified LgBiT and subsequent complementation with HiBiT genetically fused to a GPCR. The specificity of interactions was assessed through a decrease in BRET signal due to competitive displacement of the bound tracer. To further gauge the robustness of these interactions, the fold response over the control (i.e., BRETtracer/BRETcontrol) was calculated. We chose a 1.5-fold response, which translates to ≥7-fold signal over noise as the minimal threshold required to score an interaction as positive. […]. Below we highlight the screening results obtained for our exemplary fluorescent tracers based on Clozapine, Amitriptyline and AZD1283.
(§2) HiBiT-GPCR DNA constructs were diluted in 10 mM Tris pH 8 to a final concentration of 0.01 μg/μL, arrayed in 96-well plates and stored at −20 °C. For transfection, HEK293 cells were suspended in Opti-MEM (without phenol red) supplemented with 2% fetal bovine serum (Seradigm) and 100 units/mL penicillin–streptomycin (Gibco) at a final concentration of 220,000 cells/mL and dispensed into white 96-well plates at 90 μL/well. Subsequent transfections and screens were carried using an Agilent Bravo Automated Liquid Handling Platform. First, the 96-well HiBiT DNA arrays were diluted 25-fold in Opti-MEM (without serum or phenol red) to a final concentration of 0.0004 μg/μL and 20 μL of the diluted DNAs were transferred into new 96-well plates. Next, promoterless carrier DNA (1 μg/μL) was diluted 25-fold (0.04 μg/μL) and then dispensed into the diluted arrays at 20 μL/well. Following brief mixing, Viafect transfection reagent (Promega) diluted 16-fold into Opti-MEM was dispensed into the plates at 40 μL/well. After mixing by pipetting, plates were incubated for 10 min on the pipetting station deck. The DNA-transfection reagent complexes were then added to plates containing cells. To facilitate the screen, 10 μL of DNA-transfection reagent complexes were added in duplicates to the top 4 and bottom 4 rows, resulting in two identical 48-well arrays per plate. Plates with transfected cells were incubated for 18–20 h at 37 °C/5% CO2. A screen of each tracer across the entire library using two different concentrations requires duplicate plates of transfected cells. Depending on the number of tracers being screened, transfections can be scaled up using the same ratios. The next day, for each tracer, four 20× screening solutions in tracer dilution buffer (Promega) were prepared: two duplicates at final concentration of 20 μM and two duplicates at a final concentration of 2 μM. A competing unmodified compound was added to one of each duplicate at a final concentration of 400 μM. The four resulting solutions were diluted 4-fold in Opti-MEM without serum or phenol red to generate 5× solutions (5 µM and 0.5 µM tracer +/− 100 μM competing compound). To screen the library, a BioTek MultiFlo FX liquid dispenser was used to dispense 22.5 µL of tracer solution to the top 4 rows and 22.5 µL tracer + competing compound solution to the 4 bottom rows. Plates were briefly mixed on an orbital shaker and incubated for 1.5 h at room temperature. […]

GRM2 = biological target: T2, GRM2 (Homo sapiens, UniProt Q14416); assay: NanoBRET screen HiBiT-GRM2 in HEK293
T2 construct: purchased Promega (in-house HiBiT-GPCR construct library, NanoBRET)
Protocol: as §1, §2

HTR1D = biological target: T3, HTR1D (Homo sapiens, UniProt P28221); assay: NanoBRET screen HiBiT-HTR1D in HEK293
T3 construct: purchased Promega (in-house HiBiT-GPCR construct library, NanoBRET)
Protocol: as §1, §2

GRM5 = biological target: T4, GRM5 (Homo sapiens, UniProt P41594); assay: NanoBRET screen HiBiT-GRM5 in HEK293
T4 construct: purchased Promega (in-house HiBiT-GPCR construct library, NanoBRET)
Protocol: as §1, §2

HRH3 = biological target: T5, HRH3 (Homo sapiens, UniProt Q9Y5N1); assay: NanoBRET screen HiBiT-HRH3 in HEK293
T5 construct: purchased Promega (in-house HiBiT-GPCR construct library, NanoBRET)
Protocol: as §1, §2

T4 sequence (P41594 21-1212): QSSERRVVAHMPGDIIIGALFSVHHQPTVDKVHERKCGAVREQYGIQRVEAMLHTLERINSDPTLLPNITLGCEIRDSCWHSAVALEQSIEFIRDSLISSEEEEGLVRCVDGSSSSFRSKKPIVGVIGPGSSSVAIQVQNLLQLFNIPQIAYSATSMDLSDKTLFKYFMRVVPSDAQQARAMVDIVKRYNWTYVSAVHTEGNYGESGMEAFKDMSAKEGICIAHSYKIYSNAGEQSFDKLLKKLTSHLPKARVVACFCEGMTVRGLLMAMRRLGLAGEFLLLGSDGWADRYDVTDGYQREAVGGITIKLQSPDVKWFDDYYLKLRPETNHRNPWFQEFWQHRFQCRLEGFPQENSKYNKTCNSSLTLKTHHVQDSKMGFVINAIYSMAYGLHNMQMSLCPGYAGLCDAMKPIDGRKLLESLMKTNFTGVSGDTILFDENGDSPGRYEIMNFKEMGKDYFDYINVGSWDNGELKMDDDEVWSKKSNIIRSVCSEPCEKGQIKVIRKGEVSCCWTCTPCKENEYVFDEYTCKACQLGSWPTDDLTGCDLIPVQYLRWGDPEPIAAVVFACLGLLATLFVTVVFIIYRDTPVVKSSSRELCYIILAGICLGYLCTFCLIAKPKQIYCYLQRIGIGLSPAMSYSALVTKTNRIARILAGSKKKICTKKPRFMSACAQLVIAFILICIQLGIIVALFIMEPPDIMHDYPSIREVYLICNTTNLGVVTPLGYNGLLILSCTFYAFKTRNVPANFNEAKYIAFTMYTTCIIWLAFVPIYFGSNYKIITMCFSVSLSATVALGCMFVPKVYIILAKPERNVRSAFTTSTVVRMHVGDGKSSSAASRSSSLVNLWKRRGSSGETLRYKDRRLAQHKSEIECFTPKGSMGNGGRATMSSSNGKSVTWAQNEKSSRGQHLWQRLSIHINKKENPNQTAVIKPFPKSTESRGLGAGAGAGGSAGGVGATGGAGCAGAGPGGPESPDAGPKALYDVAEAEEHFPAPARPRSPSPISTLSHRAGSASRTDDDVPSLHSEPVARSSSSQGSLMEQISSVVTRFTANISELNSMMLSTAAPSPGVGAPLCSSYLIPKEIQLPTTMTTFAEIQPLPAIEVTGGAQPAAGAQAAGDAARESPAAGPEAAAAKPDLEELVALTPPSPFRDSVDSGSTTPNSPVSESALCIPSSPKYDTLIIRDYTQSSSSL
T5 sequence (Q9Y5N1 whole entry): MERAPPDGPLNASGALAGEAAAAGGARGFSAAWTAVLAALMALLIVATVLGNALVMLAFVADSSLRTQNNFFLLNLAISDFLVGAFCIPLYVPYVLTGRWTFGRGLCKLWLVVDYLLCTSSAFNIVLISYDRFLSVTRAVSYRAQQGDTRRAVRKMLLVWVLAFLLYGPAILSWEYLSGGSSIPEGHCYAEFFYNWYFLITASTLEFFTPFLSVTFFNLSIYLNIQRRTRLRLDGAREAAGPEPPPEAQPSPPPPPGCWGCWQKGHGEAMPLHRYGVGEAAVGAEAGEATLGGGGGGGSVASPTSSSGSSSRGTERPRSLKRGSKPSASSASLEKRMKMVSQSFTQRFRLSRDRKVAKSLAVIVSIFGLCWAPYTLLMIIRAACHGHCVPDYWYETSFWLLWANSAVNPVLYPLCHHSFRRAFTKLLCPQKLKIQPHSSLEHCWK
T3 sequence (P28221 whole entry): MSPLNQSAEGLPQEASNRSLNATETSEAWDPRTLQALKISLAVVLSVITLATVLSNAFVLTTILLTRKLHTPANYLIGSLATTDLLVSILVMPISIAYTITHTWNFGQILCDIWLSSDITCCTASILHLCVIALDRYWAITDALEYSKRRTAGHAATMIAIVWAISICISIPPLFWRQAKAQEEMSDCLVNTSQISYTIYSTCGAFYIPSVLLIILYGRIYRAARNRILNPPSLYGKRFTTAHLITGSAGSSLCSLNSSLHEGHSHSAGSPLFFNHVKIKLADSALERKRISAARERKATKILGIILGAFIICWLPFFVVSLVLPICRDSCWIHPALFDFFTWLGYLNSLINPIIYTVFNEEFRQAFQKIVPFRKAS
T2 sequence (Q14416 19-872): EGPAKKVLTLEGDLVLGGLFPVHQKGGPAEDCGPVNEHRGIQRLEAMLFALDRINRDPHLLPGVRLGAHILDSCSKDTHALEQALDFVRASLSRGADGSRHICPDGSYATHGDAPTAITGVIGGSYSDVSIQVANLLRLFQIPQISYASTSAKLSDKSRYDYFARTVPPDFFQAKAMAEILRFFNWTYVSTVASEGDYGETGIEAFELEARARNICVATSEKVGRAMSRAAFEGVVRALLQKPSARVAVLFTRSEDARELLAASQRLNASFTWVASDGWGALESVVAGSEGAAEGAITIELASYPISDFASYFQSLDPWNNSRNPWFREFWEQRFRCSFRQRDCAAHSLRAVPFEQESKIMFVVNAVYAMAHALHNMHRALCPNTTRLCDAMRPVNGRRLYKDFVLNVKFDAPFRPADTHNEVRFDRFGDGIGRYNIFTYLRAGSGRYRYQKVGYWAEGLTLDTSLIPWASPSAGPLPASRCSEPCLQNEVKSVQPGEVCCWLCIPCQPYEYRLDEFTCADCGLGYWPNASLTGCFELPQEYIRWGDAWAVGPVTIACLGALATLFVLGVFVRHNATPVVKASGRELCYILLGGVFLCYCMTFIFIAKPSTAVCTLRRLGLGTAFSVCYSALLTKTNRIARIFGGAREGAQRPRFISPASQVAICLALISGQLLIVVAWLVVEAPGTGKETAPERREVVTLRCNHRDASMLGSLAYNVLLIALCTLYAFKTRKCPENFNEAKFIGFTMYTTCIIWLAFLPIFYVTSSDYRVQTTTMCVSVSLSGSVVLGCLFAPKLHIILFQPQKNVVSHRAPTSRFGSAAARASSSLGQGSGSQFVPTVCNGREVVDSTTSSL

Compound | NanoBRET Fold Response (F2RL1; F2RL1, tracer 0.1μM) | NanoBRET Fold Response (F2RL1; F2RL1, tracer 1μM) | NanoBRET Fold Response (GRM2; GRM2, tracer 0.1μM) | NanoBRET Fold Response (GRM2; GRM2, tracer 1μM) | NanoBRET Fold Response (HTR1D; HTR1D, tracer 0.1μM) | NanoBRET Fold Response (HTR1D; HTR1D, tracer 1μM) | NanoBRET Fold Response (GRM5; GRM5, tracer 0.1μM) | NanoBRET Fold Response (GRM5; GRM5, tracer 1μM) | NanoBRET Fold Response (HRH3; HRH3, tracer 0.1μM) | NanoBRET Fold Response (HRH3; HRH3, tracer 1μM) | other results
O=C(CCc1ccc2n1[B-](F)(F)[N+]1=C(c3ccc[nH]3)C=CC1=C2)NCc1ccc(C(=O)NCCOCCOCCNCC(O)COc2cccc3ccccc23)cc1 (stereo not drawn) [Propranolol-3-NB590] |  |  |  |  |  |  |  |  |  |  | NanoBRET Fold Response (F2RL1; F2RL1, 0.1μM): 1.05; NanoBRET Fold Response (F2RL1; F2RL1, 1μM): 1.07; NanoBRET Fold Response (GRM2; GRM2, 0.1μM): 0.94; NanoBRET Fold Response (GRM2; GRM2, 1μM): 1.05; NanoBRET Fold Response (HTR1D; HTR1D, 0.1μM): 1.24; NanoBRET Fold Response (HTR1D; HTR1D, 1μM): 0.96; NanoBRET Fold Response (GRM5; GRM5, 0.1μM): 1.04; NanoBRET Fold Response (GRM5; GRM5, 1μM): 1.02; NanoBRET Fold Response (HRH3; HRH3, 0.1μM): 0.97; NanoBRET Fold Response (HRH3; HRH3, 1μM): 1.00
COc1ccc2c(n1)c(CCNC(C)=O)cn2CCNC(=O)CCc1ccc2n1[B-](F)(F)[N+]1=C(c3ccc[nH]3)C=CC1=C2 [Azamelatonin-1-NB590] |  |  |  |  |  |  |  |  |  |  | NanoBRET Fold Response (F2RL1; 0.1μM tracer): 1.21; NanoBRET Fold Response (F2RL1; 1μM tracer): 0.93; NanoBRET Fold Response (GRM2; 0.1μM tracer): 1.19; NanoBRET Fold Response (GRM2; 1μM tracer): 1.00; NanoBRET Fold Response (HTR1D; 0.1μM tracer): 0.68; NanoBRET Fold Response (HTR1D; 1μM tracer): 0.68; NanoBRET Fold Response (GRM5; 0.1μM tracer): 0.84; NanoBRET Fold Response (GRM5; 1μM tracer): 0.95; NanoBRET Fold Response (HRH3; 0.1μM tracer): 1.07; NanoBRET Fold Response (HRH3; 1μM tracer): 1.07
O=C(CCOCCOCCOCCOCCNC(=O)CCc1ccc2n1[B-](F)(F)[N+]1=C(c3ccc[nH]3)C=CC1=C2)NCCCN1CCN(C2=Nc3ccccc3Oc3ccc(Cl)cc32)CC1 [Loxapine-a-2-NB590] | 1.12 | 1.14 | 1.00 | 1.25 | 1.35 | 1.74 | 1.00 | 1.04 | 1.06 | 1.01 | 
COc1ccccc1N1CCN(CCCCN2C(=O)c3ccc(CNC(=O)CCOCCOCCOCCOCCNC(=O)CCc4ccc5n4[B-](F)(F)[N+]4=C(c6ccc[nH]6)C=CC4=C5)cc3C2=O)CC1 [NAN-190-2-NB590] | 0.96 | 0.98 | 0.26 | 1.00 | 1.35 | 1.41 | 0.96 | 1.04 | 0.98 | 0.97 | 
CC(C)N(CC[C@H](c1ccccc1)c1cc(CCNC(=O)c2ccc(CNC(=O)CCc3ccc4n3[B-](F)(F)[N+]3=C(c5ccc[nH]5)C=CC3=C4)cc2)ccc1O)C(C)C [Tolterodine-BZ-NB590] | 0.97 | 0.98 | 1.00 | 0.15 | 1.27 | 0.92 | 1.00 | 1.05 | 1.16 | 1.28 | 
O=C(CCc1ccc2n1[B-](F)(F)[N+]1=C(c3ccc[nH]3)C=CC1=C2)NCCOCCOCCNC(=O)OCCOCCN1CCN(C2=Nc3ccccc3Sc3ccccc32)CC1 [Quetiapine-a-2-NB590] | 0.88 | 0.71 | 0.92 | 1.06 | 1.02 | 1.32 | 1.08 | 1.05 | 1.09 | 0.98 | 
CN1CCN(C2=Nc3cc(Cl)ccc3Nc3ccc(CNC(=O)CCOCCOCCOCCOCCNC(=O)CCc4ccc5n4[B-](F)(F)[N+]4=C(c6ccc[nH]6)C=CC4=C5)cc32)CC1 [Clozapine-b-2-NB590] |  |  |  |  |  |  |  |  |  |  | NanoBRET Fold Response (F2RL1; F2RL1, 0.1μM tracer): 1.00; NanoBRET Fold Response (F2RL1; F2RL1, 1μM tracer): 1.06; NanoBRET Fold Response (GRM2; GRM2, 0.1μM tracer): 1.01; NanoBRET Fold Response (GRM2; GRM2, 1μM tracer): 1.04; NanoBRET Fold Response (HTR1D; HTR1D, 0.1μM tracer): 1.08; NanoBRET Fold Response (HTR1D; HTR1D, 1μM tracer): 1.48; NanoBRET Fold Response (GRM5; GRM5, 0.1μM tracer): 0.99; NanoBRET Fold Response (GRM5; GRM5, 1μM tracer): 1.01; NanoBRET Fold Response (HRH3; HRH3, 0.1μM tracer): 0.98; NanoBRET Fold Response (HRH3; HRH3, 1μM tracer): 1.06
CC(C)N(CC[C@H](c1ccccc1)c1cc(CCNC(=O)CCOCCOCCOCCOCCNC(=O)CCc2ccc3n2[B-](F)(F)[N+]2=C(c4ccc[nH]4)C=CC2=C3)ccc1O)C(C)C [Tolterodine-2-NB590] | 1.07 | 1.03 | 0.99 | 0.97 | 1.35 | 0.68 | 0.99 | 0.87 | 1.49 | 1.07 | 
Cc1cc2c(s1)Nc1ccccc1N=C2N1CCN(CCCNC(=O)CCOCCOCCOCCOCCNC(=O)CCc2ccc3n2[B-](F)(F)[N+]2=C(c4ccc[nH]4)C=CC2=C3)CC1 [Olanzapine-a-2-NB590] | 1.04 | 0.96 | 1.00 | 1.01 | 1.03 | 1.29 | 0.95 | 0.97 | 1.06 | 1.16 | 

From publication PMC8151276, “An Integrated Approach toward NanoBRET Tracers for Analysis of GPCR Ligand Engagement” (Molecules, 2021)
